Assay results: patent US12441691B2 (Cytokinetics, Inc., priority 2020, dated 2025)

system: rabbit skeletal myofibrils (fast skeletal myofibrils); test: Activation of fast skeletal myofibrils (PUMA assay, AC1.4); type: biochemical; conditions: calcium at pCa25, AC1.4 = concentration at which the compound increased the enzymatic activity
Method in brief: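 Detergent-washed rabbit psoas myofibrils (~90% fast fibers), calcium set to give 25% of maximal rate (pCa25). ATPase followed by pyruvate kinase/lactate dehydrogenase-coupled NADH oxidation, absorbance at 340 nm. PM12 buffer: 12 mM PIPES, 2 mM MgCl2, 1 mM DTT, pH 6.8.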

Compound | AC1.4 [µM]
CC[C@H](C)[C@H]1C(=O)Nc2ccccc2CN1C(=O)c1ccn(C)c(=O)c1 [Compound 172, (S)-3-((S)-sec-butyl)-4-(1-methyl-2-oxo-1,2-dihydropyridine-4-carbonyl)-1,3,4,5-tetrahydro-2H-benzo[e][1,4]diazepin-2-one] | 0.63
CC[C@H](C)[C@H]1C(=O)Nc2ccccc2CN1C(=O)NCC[S+](C)[O-] (stereo partly drawn) [Compound 213, (3S)-3-((S)-sec-butyl)-N-(2-(methylsulfinyl)ethyl)-2-oxo-1,2,3,5-tetrahydro-4H-benzo[e][1,4]diazepine-4-carboxamide] | 4.04
CC[C@H](C)[C@H]1C(=O)Nc2ccccc2CN1C(=O)c1cnn(CCO)c1 [Compound 16, (S)-3-((S)-sec-Butyl)-4-(1-(2-hydroxyethyl)-1H-pyrazole-4-carbonyl)-1,3,4,5-tetrahydro-2H-benzo[e][1,4]diazepin-2-one] | 0.14
CC[C@H](C)[C@H]1C(=O)Nc2ccccc2CN1C(=O)CCN1CC[C@@H](O)C1 [Compound 185, (S)-3-((S)-sec-butyl)-4-(3-((R)-3-hydroxypyrrolidin-1-yl)propanoyl)-1,3,4,5-tetrahydro-2H-benzo[e][1,4]diazepin-2-one] | 0.92
CC[C@H](C)[C@H]1C(=O)Nc2ccccc2CN1C(=O)N(CCO)C(C)C [Compound 135, (S)-3-((S)-sec-butyl)-N-(2-hydroxyethyl)-N-isopropyl-2-oxo-1,2,3,5-tetrahydro-4H-benzo[e][1,4]diazepine-4-carboxamide] | 3.72
CC[C@H](C)[C@H]1C(=O)Nc2ccccc2CN1C(=O)N1CC[C@H]1C(N)=O [Compound 103, (S)-1-((S)-3-((S)-sec-butyl)-2-oxo-2,3,4,5-tetrahydro-1H-benzo[e][1,4]diazepine-4-carbonyl)azetidine-2-carboxamide] | 1.22
CC[C@H](C)[C@H]1C(=O)Nc2ccccc2C2COC(=O)N21 (stereo partly drawn) [Compound 318, (5S)-5-((S)-sec-Butyl)-7,11b-dihydro-1H,3H-benzo[f]oxazolo[3,4-d][1,4]diazepine-3,6(5H)-dione] | 0.19
CC[C@H](C)[C@H]1C(=O)Nc2ccccc2CN1C(=O)Nc1ccc(NC(C)=O)nc1 [Compound 202, (S)-N-(6-acetamidopyridin-3-yl)-3-((S)-sec-butyl)-2-oxo-1,2,3,5-tetrahydro-4H-benzo[e][1,4]diazepine-4-carboxamide] | 0.17
CNC(=O)N1Cc2ccccc2NC(=O)[C@@H]1C(C)C [Compound 335, (S)-3-isopropyl-N-methyl-2-oxo-1,2,3,5-tetrahydro-4H-benzo[e][1,4]diazepine-4-carboxamide] | 3.75
CC[C@H](C)[C@H]1C(=O)Nc2ccccc2CN1C(=O)NCCO [Compound 203, (S)-3-((S)-sec-butyl)-N-(2-hydroxyethyl)-2-oxo-1,2,3,5-tetrahydro-4H-benzo[e][1,4]diazepine-4-carboxamide] | 1.75
CC[C@H](C)[C@H]1C(=O)Nc2cnccc2CN1c1c(N(C)C)c(=O)c1=O [Compound 377, 3-((S)-3-((S)-sec-butyl)-2-oxo-1,2,3,5-tetrahydro-4H-pyrido[3,4-e][1,4]diazepin-4-yl)-4-(dimethylamino)cyclobut-3-ene-1,2-dione] | 0.29
CC[C@H](C)[C@H]1C(=O)Nc2ccccc2CN1C(=O)N[C@@H](C)C(N)=O [Compound 256, (S)-N-((S)-1-amino-1-oxopropan-2-yl)-3-((S)-sec-butyl)-2-oxo-1,2,3,5-tetrahydro-4H-benzo[e][1,4]diazepine-4-carboxamide] | 1.89
CC[C@H](C)[C@H]1C(=O)Nc2ccccc2CN1C(=O)c1cncc(C(N)=O)c1 [Compound 162, 5-((S)-3-((S)-sec-butyl)-2-oxo-2,3,4,5-tetrahydro-1H-benzo[e][1,4]diazepine-4-carbonyl)nicotinamide] | 0.11
CC(C)[C@H]1C(=O)Nc2ccccc2CN1S(=O)(=O)N(C)C [Compound 333, (S)-3-isopropyl-N,N-dimethyl-2-oxo-1,2,3,5-tetrahydro-4H-benzo[e][1,4]diazepine-4-sulfonamide] | 2.44
CC[C@H](C)[C@H]1C(=O)Nc2ccccc2CN1C(=O)COc1ccccc1C(N)=O [Compound 201, 2-(2-((S)-3-((S)-sec-butyl)-2-oxo-1,2,3,5-tetrahydro-4H-benzo[e][1,4]diazepin-4-yl)-2-oxoethoxy)benzamide] | 0.05
CC[C@H](C)[C@H]1C(=O)Nc2c(F)cccc2CN1C(=O)N1CC(O)C1 [Compound 79, (S)-3-((S)-sec-butyl)-9-fluoro-4-(3-hydroxyazetidine-1-carbonyl)-1,3,4,5-tetrahydro-2H-benzo[e][1,4]diazepin-2-one] | 0.32
CC[C@H](C)[C@H]1C(=O)Nc2ccccc2CN1C(=O)CCN1CCC[C@@H]1C(N)=O [Compound 187, (R)-1-(3-((S)-3-((S)-sec-butyl)-2-oxo-1,2,3,5-tetrahydro-4H-benzo[e][1,4]diazepin-4-yl)-3-oxopropyl)pyrrolidine-2-carboxamide] | 1.39

Compound | AC1.4 [µM]
CC[C@H](C)[C@H]1C(=O)Nc2ccccc2CN1C(=N)N [Compound 19, (S)-3-((S)-sec-Butyl)-2-oxo-1,2,3,5-tetrahydro-4H-benzo[e][1,4]diazepine-4-carboximidamide] | 0.13
CC[C@H](C)[C@H]1C(=O)Nc2ccccc2CN1C(=O)Nc1ccc(=O)n(CC2CC2)c1 [Compound 254, (S)-3-((S)-sec-butyl)-N-(1-(cyclopropylmethyl)-6-oxo-1,6-dihydropyridin-3-yl)-2-oxo-1,2,3,5-tetrahydro-4H-benzo[e][1,4]diazepine-4-carboxamide] | 0.07
CC[C@H](C)[C@H]1C(=O)Nc2ccccc2CN1C(=O)NCCN1CCNC1=O [Compound 260, (S)-3-((S)-sec-butyl)-2-oxo-N-(2-(2-oxoimidazolin-1-yl)ethyl)-1,2,3,5-tetrahydro-4H-benzo[e][1,4]diazepine-4-carboxamide] | 1.91
CC[C@H](C)[C@H]1C(=O)Nc2ccccc2CN1C(=O)c1ncn[nH]1 [Compound 152, (S)-3-((S)-sec-butyl)-4-(1H-1,2,4-triazole-5-carbonyl)-1,3,4,5-tetrahydro-2H-benzo[e][1,4]diazepin-2-one] | 0.07
CC[C@H](C)[C@H]1C(=O)Nc2cc(F)ccc2CN1C(=O)CCO [Compound 43, (S)-3-((S)-sec-butyl)-8-fluoro-4-(3-hydroxypropanoyl)-1,3,4,5-tetrahydro-2H-benzo[e][1,4]diazepin-2-one] | 0.81
CC[C@H](C)[C@H]1C(=O)Nc2ccccc2CN1C(=O)Nc1cncc(OC)c1 [Compound 292, (S)-3-((S)-sec-butyl)-N-(5-methoxypyridin-3-yl)-2-oxo-1,2,3,5-tetrahydro-4H-benzo[e][1,4]diazepine-4-carboxamide] | 0.05
CC[C@H](C)[C@H]1C(=O)Nc2ccccc2CN1C(=O)N1CC[C@H](C(=O)N(C)C)C1 [Compound 295] | 3.41
CC[C@H](C)[C@H]1C(=O)Nc2ccccc2CN1C(=O)N1CCN[C@@H](C)C1 [Compound 231, (S)-3-((S)-sec-butyl)-4-((S)-3-methylpiperazine-1-carbonyl)-1,3,4,5-tetrahydro-2H-benzo[e][1,4]diazepin-2-one] | 4.86
CC[C@H](C)[C@H]1C(=O)Nc2cc(F)cnc2CN1C(N)=O [Compound 13, (S)-3-((S)-sec-Butyl)-8-fluoro-2-oxo-1,2,3,5-tetrahydro-4H-pyrido[3,2-e][1,4]diazepine-4-carboxamide] | 1.03
CC[C@H](C)[C@H]1C(=O)Nc2ccccc2CN1C(=O)CCN1CC[C@H](O)C1 [Compound 184, (S)-3-((S)-sec-butyl)-4-(3-((S)-3-hydroxypyrrolidin-1-yl)propanoyl)-1,3,4,5-tetrahydro-2H-benzo[e][1,4]diazepin-2-one] | 0.55
CC[C@H](C)[C@H]1C(=O)Nc2ccccc2CN1C(=O)N1CCC(N(C)C)C1 (stereo partly drawn) [Compound 234, (3S)-3-((S)-sec-butyl)-4-(3-(dimethylamino)pyrrolidine-1-carbonyl)-1,3,4,5-tetrahydro-2H-benzo[e][1,4]diazepin-2-one] | 4.64
CC[C@H](C)[C@H]1C(=O)Nc2ccccc2CN1C(=O)c1cc2c(=O)[nH]ncc2[nH]1 [Compound 176, (S)-3-((S)-sec-butyl)-4-(4-oxo-4,5-dihydro-1H-pyrrolo[2,3-d]pyridazine-2-carbonyl)-1,3,4,5-tetrahydro-2H-benzo[e][1,4]diazepin-2-one] | 0.05
CC[C@H](C)[C@H]1C(=O)Nc2ccccc2C(C(=O)NC)N1C(N)=O (stereo partly drawn) [Compound 40, (3S)-3-((S)-sec-Butyl)-N^5-methyl-2-oxo-1,2,3,5-tetrahydro-4H-benzo[e][1,4]diazepine-4,5-dicarboxamide] | 2.57
CC[C@H](C)[C@H]1C(=O)Nc2ccccc2CN1C(=O)c1cnc(C(N)=O)cn1 [Compound 109, 5-((S)-3-((S)-sec-butyl)-2-oxo-2,3,4,5-tetrahydro-1H-benzo[e][1,4]diazepine-4-carbonyl)pyrazine-2-carboxamide] | 0.17
CCOC(=O)c1ccc(C(=O)N2Cc3ccccc3NC(=O)[C@@H]2[C@@H](C)CC)[nH]1 [Compound 163, ethyl 5-((S)-3-((S)-sec-butyl)-2-oxo-2,3,4,5-tetrahydro-1H-benzo[e][1,4]diazepine-4-carbonyl)-1H-pyrrole-2-carboxylate] | 0.05
CC[C@H](C)[C@H]1C(=O)Nc2ccc(F)cc2CN1C(=O)N[C@H]1C[C@@H](O)C1 [Compound 355, (S)-3-((S)-sec-butyl)-7-fluoro-N-((1s,3R)-3-hydroxycyclobutyl)-2-oxo-1,2,3,5-tetrahydro-4H-benzo[e][1,4]diazepine-4-carboxamide] | 1.49
